Test results: patent US11021493B2, “1,4-thiazine dioxide and 1,2,4-thiadiazine dioxide derivatives as beta-secretase inhibitors and methods of use” (AMGEN INC., priority 2016, dated 2021)

Columns and labels:
BACE1 [1] = target: T1, BACE1 (Homo sapiens (Human), UniProt P56817); assay: In vitro enzymatic BACE1 FRET assay; format: biochemical; conditions: read-out: BACE1 Enzyme IC50
Target sequence in this assay (P56817 46-501): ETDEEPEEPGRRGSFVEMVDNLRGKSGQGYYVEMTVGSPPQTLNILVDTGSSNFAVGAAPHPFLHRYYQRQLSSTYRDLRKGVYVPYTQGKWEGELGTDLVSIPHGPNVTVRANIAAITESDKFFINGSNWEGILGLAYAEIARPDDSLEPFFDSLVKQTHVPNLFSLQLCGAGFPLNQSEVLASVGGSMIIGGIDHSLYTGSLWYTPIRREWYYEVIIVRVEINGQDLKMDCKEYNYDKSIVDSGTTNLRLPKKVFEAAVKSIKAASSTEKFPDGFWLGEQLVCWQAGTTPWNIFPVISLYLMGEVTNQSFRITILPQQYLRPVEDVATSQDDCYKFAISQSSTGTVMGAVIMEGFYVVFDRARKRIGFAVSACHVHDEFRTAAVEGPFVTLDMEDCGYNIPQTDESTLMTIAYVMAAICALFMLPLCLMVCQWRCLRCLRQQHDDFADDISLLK

Cathepsin D (CatD) = Cathepsin D (CatD) (Homo sapiens (Human), UniProt P07339); assay: In vitro enzymatic Cathepsin D (CatD) FRET assay; format: biochemical; conditions: read-out: Cat D Enzyme IC50
Sequence of Cathepsin D (CatD) (P07339 65-412, species assumed): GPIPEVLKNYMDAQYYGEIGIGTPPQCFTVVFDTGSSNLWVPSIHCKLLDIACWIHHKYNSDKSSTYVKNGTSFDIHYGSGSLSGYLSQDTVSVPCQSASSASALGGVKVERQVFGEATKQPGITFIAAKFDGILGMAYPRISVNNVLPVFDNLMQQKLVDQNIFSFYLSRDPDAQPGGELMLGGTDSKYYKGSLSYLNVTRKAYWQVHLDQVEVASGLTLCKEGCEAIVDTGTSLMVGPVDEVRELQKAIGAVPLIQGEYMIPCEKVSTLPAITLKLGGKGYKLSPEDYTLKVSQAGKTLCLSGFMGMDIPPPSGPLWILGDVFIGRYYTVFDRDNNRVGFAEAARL

BACE1 [2] = target: T1, BACE1; assay: In vitro BACE1 cell-based assay (Aβ40 in conditioned medium of cells stably expressing APP, HTRF); conditions: Aβ40 in conditioned media after 24 h incubation
Target sequence in this assay (P56817 46-501, species assumed): as the sequence (P56817 46-501) above

human recombinant BACE2 = human recombinant BACE2 (Homo sapiens (Human), UniProt Q9Y5Z0); assay: In vitro enzymatic BACE2 FRET assay; format: biochemical; conditions: read-out: BACE2 Enzyme IC50
Sequence of human recombinant BACE2 (Q9Y5Z0 63-518): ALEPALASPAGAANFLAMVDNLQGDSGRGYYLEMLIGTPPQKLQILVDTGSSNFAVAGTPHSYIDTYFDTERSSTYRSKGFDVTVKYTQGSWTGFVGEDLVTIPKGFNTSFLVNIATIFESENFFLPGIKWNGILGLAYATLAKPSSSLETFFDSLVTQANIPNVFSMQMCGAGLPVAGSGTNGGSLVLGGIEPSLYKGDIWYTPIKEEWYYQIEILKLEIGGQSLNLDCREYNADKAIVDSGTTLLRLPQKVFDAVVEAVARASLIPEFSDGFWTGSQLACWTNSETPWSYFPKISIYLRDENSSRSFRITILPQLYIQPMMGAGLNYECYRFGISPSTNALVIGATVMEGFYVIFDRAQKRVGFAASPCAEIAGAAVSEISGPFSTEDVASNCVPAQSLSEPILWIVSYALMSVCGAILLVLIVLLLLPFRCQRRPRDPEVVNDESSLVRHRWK

Structure (SMILES) | IC50 (BACE1 [1]) | IC50 (Cathepsin D (CatD)) | IC50 (BACE1 [2]) | IC50 (human recombinant BACE2)
Cc1nnc(COc2cnc(/C(F)=C/c3ccc(F)c([C@]4(C)CS(=O)(=O)N(C)C(N)=N4)c3)cn2)o1 [Example 173, (R,Z)-3-amino-5-(2-fluoro-5-(2-fluoro-2-(5-((5-methyl-1,3,4-oxadiazol-2-yl)methoxy)pyrazin-2-yl)vinyl)phenyl)-2,5-dimethyl-5,6-dihydro-2H-1,2,4-thiadiazine 1,1-dioxide] | 7 nM | 78100 nM | 9 nM | 103 nM
CN1C(N)=N[C@](C)(c2cc(/C=C(\F)c3ccc(C#N)cn3)cc(F)c2F)CS1(=O)=O [Example 107, (R,Z)-6-(2-(3-(3-amino-2,5-dimethyl-1,1-dioxido-5,6-dihydro-2H-1,2,4-thiadiazin-5-yl)-4,5-difluorophenyl)-1-fluorovinyl)nicotinonitrile] | 3 nM | 81800 nM | 3 nM | 25 nM
CC1(C)C(N)=N[C@](C)(c2cc(/C=C(\F)c3cnc(OCc4ncco4)cn3)ccc2F)CS1(=O)=O [Example 129, (R,Z)-5-amino-3-(2-fluoro-5-(2-fluoro-2-(5-(oxazol-2-ylmethoxy)pyrazin-2-yl)vinyl)phenyl)-3,6,6-trimethyl-3,6-dihydro-2H-1,4-thiazine 1,1-dioxide] | 7 nM | 163000 nM | 5 nM | 56 nM
CN1C(N)=N[C@](C)(c2cc(/C=C(\F)c3cnc(OCC4CC4)cn3)ccc2F)CS1(=O)=O [Example 143, (R,Z)-3-amino-5-(5-(2-(5-(cyclopropylmethoxy)pyrazin-2-yl)-2-fluorovinyl)-2-fluorophenyl)-2,5-dimethyl-5,6-dihydro-2H-1,2,4-thiadiazine 1,1-dioxide] | 44 nM | 30500 nM | 380 nM | 222 nM
Cc1nnc(COc2cnc(/C(F)=C/c3ccc(F)c([C@]4(C)CS(=O)(=O)C(C)(C)C(N)=N4)c3)cn2)o1 [Example 176, (R,Z)-5-amino-3-(2-fluoro-5-(2-fluoro-2-(5-((5-methyl-1,3,4-oxadiazol-2-yl)methoxy)pyrazin-2-yl)vinyl)phenyl)-3,6,6-trimethyl-3,6-dihydro-2H-1,4-thiazine 1,1-dioxide] | 111 nM | 148000 nM | 56 nM | 409 nM

The remaining compounds from weak to strong by IC50 (BACE1 [1]), led by results:

IC50 (BACE1 [1]) | IC50 (Cathepsin D (CatD)) | IC50 (BACE1 [2]) | IC50 (human recombinant BACE2) | Structure (SMILES)
296 nM | 335000 nM | 277 nM | 790 nM | CC1(C)C(N)=N[C@](C)(c2cc(/C=C(\F)c3cc4c(cn3)OCCO4)ccc2F)CS1(=O)=O [Example 184, (R,Z)-5-amino-3-(5-(2-(2,3-dihydro-[1,4]dioxino[2,3-c]pyridin-7-yl)-2-fluorovinyl)-2-fluorophenyl)-3,6,6-trimethyl-3,6-dihydro-2H-1,4-thiazine 1,1-dioxide]
35 nM | 15400 nM | 99 nM | 14 nM | CN1C(N)=N[C@](C)(c2cc(/C=C(\F)c3ccc(C#N)s3)ccc2F)CS1(=O)=O [Example 256, 5-((Z)-2-(3-((5R)-3-amino-2,5-dimethyl-1,1-dioxido-5,6-dihydro-2H-1,2,4-thiadiazin-5-yl)-4-fluorophenyl)-1-fluoroethenyl)-2-thiophenecarbonitrile]
33 nM | 81300 nM | 52 nM | 87 nM | CC1(C)C(N)=N[C@](C)(c2cc(/C=C(\F)c3ccc(C#N)cn3)cnc2F)CS1(=O)=O [Example 197, (R,Z)-6-(2-(5-(5-amino-3,6,6-trimethyl-1,1-dioxido-3,6-dihydro-2H-1,4-thiazin-3-yl)-6-fluoropyridin-3-yl)-1-fluorovinyl)nicotinonitrile]
3 nM | 95000 nM | 24 nM | 2 nM | CN1C(N)=N[C@](C)(c2cc(/C=C(\F)c3ccc(Cl)cn3)ccc2F)CS1(=O)=O [Example 104, (R,Z)-3-amino-5-(5-(2-(5-chloropyridin-2-yl)-2-fluorovinyl)-2-fluorophenyl)-2,5-dimethyl-5,6-dihydro-2H-1,2,4-thiadiazine 1,1-dioxide]
